Results as given in US20250206722A1, “SMALL MOLECULE INHIBITORS OF TEA DOMAIN FAMILY MEMBERS” (The Scripps Research Institute, priority 2022, published 2025).

Assays:
Type in all cases: cell-based
[1] = test system: NCI-H226 cells; assay: NCI-H226 proliferation assay (Wuxi AppTec); conditions: Homo sapiens, 168 h, 7 days, CellTiter-Glo, top dose 10, 3-fold dilution, 9 doses
Description: […] Proliferation Assay (From Wuxi AppTec CO.):
Day −1: Seeding cells • (1) Equilibrate cell culture medium to 37° C. • (2) Remove and discard the culture medium. • (3) Briefly rinse the cell layer with PBS to remove all traces of serum that contains […]. • (4) Add 2-3 mL of Trypsin-EDTA solution to flask and observe cells under an inverted microscope until cell layer is dispersed. • (5) Add 6-8 mL of growth medium to terminate the digestion of Trypsin/EDTA. • (6) Centrifuge the mixture (Trypsin EDTA and the growth medium) at 1000 rpm for 5 mins. • (7) Discard the supernatant, suspend the cell precipitation with the fresh growth medium, then take 1 mL the cell suspension to count cells with Vi-cell XR cell viability analyzer. • (8) Adjust the cell density to 500 cells/well for 384-well plates. • (9) Add 50 µL/well volume cell suspension to the assay plate. • (10) Add […] media to the control columns. • (11) Incubate the plate at 37° C., 5% CO2 for overnight. Day 0: Compounds treatment • (1) Add cpds to each well by Tecan HP D300E. The top dose is […], 3-fold dilution and 9 doses. DMSO final concentration will be normalized to 0.2%. • (2) Incubate the assay plate at 37° C., 5% CO2 for 7 days. Day 7: Plate read • (1) Equilibrate the assay plate to the room temperature for nearly 30 minutes. • (2) Add […] CellTiter-Glo reagent to each well and shake the plate for 1 min, incubate 10 min and keep them from light. • (3) Detect the plate by EnVision. Data analysis:
Max: Average of the DMSO group Min: Average of medium group.

[2] = test system: transcriptional activity of TEADs; assay: TEAD reporter assay (MCF7 TEAD-LUC reporter cells); conditions: Homo sapiens, 24 hours, BrightGlo luminescence
How it was run: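 Luminescence (BrightGlo) was read after 24 h of compound treatment at 37 °C, 5 % CO2. Cells had been seeded at 5,000 per well in DMEM with 10 % FBS and insulin and rested 24 h first. Dosing used 20 points, 1:2 dilution from 20 μM final, triplicates.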

[3] = test system: NCI-H226 cells; assay: NCI-H226 proliferation assay (in house); conditions: Homo sapiens, 120 h, 5 days, Cell TiterGlo, 20-point 1:2 dilution from 20 μM
How it was run: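 Viability by CellTiter-Glo luminescence after 5-day compound exposure at 37 °C, 5% CO2. Compounds added 24 h post-seeding (500 cells/well, RPMI 1640 with 10% FBS) as 20-point, 2-fold series from 20 μM final, triplicate wells.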

Structure (SMILES) | IC50 [1] [µM] | IC50 [2] [nM] | IC50 [3] [µM]
C#CCC1CN(c2nccnc2Nc2ccc(C(F)(F)F)cc2)CCN1C(=O)C=C (centres unmarked) [Example 23, 1-(2-(prop-2-yn-1-yl)-4-(3-((4-(trifluoromethyl)phenyl)amino)pyrazin-2-yl)piperazin-1-yl)prop-2-en-1-one] | 0.151 | 0.3 | 0.651
C=CC(=O)N1CCN(c2nccnc2Nc2ccc(OC(F)F)cc2)CC1 [Example 35, 1-(4-(3-((4-(difluoromethoxy)phenyl)amino)pyrazin-2-yl)piperazin-1-yl)prop-2-en-1-one] | 0.028 | 0.8 | 0.084
C=CC(=O)N1CC=C(c2nccnc2Nc2ccc(C(F)(F)F)cn2)CC1 [Example 43, 1-(4-(3-((5-(trifluoromethyl)pyridin-2-yl)amino)pyrazin-2-yl)-3,6-dihydropyridin-1(2H)-yl)prop-2-en-1-one] | 0.011 | 1 | 0.006
C=CC(=O)N1CCC(c2nccnc2Nc2ccc(C(F)(F)F)cn2)CC1 [Example 44, 1-(4-(3-((5-(trifluoromethyl)pyridin-2-yl)amino)pyrazin-2-yl)piperidin-1-yl)prop-2-en-1-one] | 0.02 | 1.4 | 0.012
C=C(F)C(=O)N1CCN(c2nccnc2Nc2ccc(C(F)(F)F)nc2)CC1 [Example 46, 2-fluoro-1-(4-(3-((6-(trifluoromethyl)pyridin-3-yl)amino)pyrazin-2-yl)piperazin-1-yl)prop-2-en-1-one] | 0.452 | 0.6 | 1.63
C=CC(=O)N1CCN(c2nccnc2Nc2ccc(OC(F)(F)F)nc2)CC1 [Example 48, 1-(4-(3-((6-(trifluoromethoxy)pyridin-3-yl)amino)pyrazin-2-yl)piperazin-1-yl)prop-2-en-1-one] | 0.032 | 0.7 | 0.023
C=CC(=O)N1CCN(c2nccnc2Nc2ccc(OC(F)F)nc2)CC1 [Example 49, 1-(4-(3-((6-(difluoromethoxy)pyridin-3-yl)amino)pyrazin-2-yl)piperazin-1-yl)prop-2-en-1-one] | 0.031 | 2 | 0.055
C=CC(=O)N1CCN(c2nccnc2Nc2cnc(C(F)(F)F)c(F)c2)CC1 [Example 50, 1-(4-(3-((5-fluoro-6-(trifluoromethyl)pyridin-3-yl)amino)pyrazin-2-yl)piperazin-1-yl)prop-2-en-1-one] | 0.026 | 3.1 | 0.034
C=CC(=O)N1CC=C(c2nccnc2Nc2ccc(C(F)(F)F)nc2)CC1 [Example 55, 1-(4-(3-((6-(trifluoromethyl)pyridin-3-yl)amino)pyrazin-2-yl)-3,6-dihydropyridin-1(2H)-yl)prop-2-en-1-one] | 0.058 | 4 | 0.03
C=C(F)C(=O)N1CC(Nc2nccnc2Nc2ccc(C(F)(F)F)nc2)C1 [Example 63, 2-fluoro-1-(3-((3-((6-(trifluoromethyl)pyridin-3-yl)amino)pyrazin-2-yl)amino)azetidin-1-yl)prop-2-en-1-one] | 1.7 | 4.8 | 1.5
C=CC(=O)N1CCN(c2nccnc2NC2C3CC2C3C(F)(F)F)CC1 (centres unmarked) [Example 67, 1-(4-(3-((4-(trifluoromethyl)bicyclo[1.1.1]pentan-2-yl)amino)pyrazin-2-yl)piperazin-1-yl)prop-2-en-1-one] | 1.45 | 2.9 | 0.079
C=CC(=O)N1CCN(c2nccnc2Oc2ccc(OC(F)F)cc2)CC1 [Example 71, 1-(4-(3-(4-(difluoromethoxy)phenoxy)pyrazin-2-yl)piperazin-1-yl)prop-2-en-1-one] | 0.007 | 1.3 | 0.008
C=CC(=O)N1CCN(c2nccnc2Oc2ccc(OC(F)(F)F)cc2)CC1 [Example 72, 1-(4-(3-(4-(trifluoromethoxy)phenoxy)pyrazin-2-yl)piperazin-1-yl)prop-2-en-1-one] | 0.011 | 0.52 | 0.005
C=CC(=O)N1CC=C(c2nccnc2Oc2ccc(C(F)(F)F)cn2)CC1 [Example 74, 1-(4-(3-((5-(trifluoromethyl)pyridin-2-yl)oxy)pyrazin-2-yl)-3,6-dihydropyridin-1(2H)-yl)prop-2-en-1-one] | 0.121 | 2.4 | 0.449
C=C(F)C(=O)N1CCN(c2nccnc2Oc2ccc(C(F)(F)F)nc2)CC1 [Example 78, 2-fluoro-1-(4-(3-((6-(trifluoromethyl)pyridin-3-yl)oxy)pyrazin-2-yl)piperazin-1-yl)prop-2-en-1-one] | 0.009 | 2.1 | 0.032
C=C(F)C(=O)N1CC=C(c2nccnc2Oc2ccc(C(F)(F)F)nc2)CC1 [Example 85, 2-fluoro-1-(4-(3-((6-(trifluoromethyl)pyridin-3-yl)oxy)pyrazin-2-yl)-3,6-dihydropyridin-1(2H)-yl)prop-2-en-1-one] | 0.011 | 1.6 | 0.016
C=CC(=O)N1CCN(c2nccnc2Oc2cnc(C(F)(F)F)nc2)CC1 [Example 87, 1-(4-(3-((2-(trifluoromethyl)pyrimidin-5-yl)oxy)pyrazin-2-yl)piperazin-1-yl)prop-2-en-1-one] | 0.047 | 1.4 | 0.025
C=C(F)C(=O)N1CCN(c2nccnc2Oc2cnc(C(F)(F)F)nc2)CC1 [Example 88, 2-fluoro-1-(4-(3-((2-(trifluoromethyl)pyrimidin-5-yl)oxy)pyrazin-2-yl)piperazin-1-yl)prop-2-en-1-one] | 0.027 | 1.9 | 0.047
C=CC(=O)N1CC=C(c2nccnc2Oc2cnc(C(F)(F)F)nc2)CC1 [Example 89, 1-(4-(3-((2-(trifluoromethyl)pyrimidin-5-yl)oxy)pyrazin-2-yl)-3,6-dihydropyridin-1(2H)-yl)prop-2-en-1-one] | 0.033 | 1.8 | 0.164
C=C(F)C(=O)N1CC=C(c2nccnc2Oc2cnc(C(F)(F)F)nc2)CC1 [Example 90, 2-fluoro-1-(4-(3-((2-(trifluoromethyl)pyrimidin-5-yl)oxy)pyrazin-2-yl)-3,6-dihydropyridin-1(2H)-yl)prop-2-en-1-one] | 0.031 | 5.9 | 0.033
C=CC(=O)N1CCN(c2nccnc2OC2CCC(C(F)(F)F)CC2)CC1 (centres unmarked) [Example 94, 1-(4-(3-((4-(trifluoromethyl)cyclohexyl)oxy)pyrazin-2-yl)piperazin-1-yl)prop-2-en-1-one] | 0.017 | 0.84 | 0.018
C=CC(=O)N1CCN(c2nccnc2C(=O)c2ccc(C(F)(F)F)nc2)CC1 [Example 96, 1-(4-(3-(6-(trifluoromethyl)nicotinoyl)pyrazin-2-yl)piperazin-1-yl)prop-2-en-1-one] | 0.089 | 3.6 | 0.012
C=CC(=O)N1CCN(c2nccnc2N2CCC(C(F)(F)F)CC2)CC1 [Example 105, 1-(4-(3-(4-(trifluoromethyl)piperidin-1-yl)pyrazin-2-yl)piperazin-1-yl)prop-2-en-1-one] | 0.05 | 1.1 | 0.004
C=CC(=O)N1CCC(n2nccc2C(=O)c2ccc(C(F)(F)F)cc2)CC1 [Example 164, 1-(4-(5-(4-(trifluoromethyl)benzoyl)-1H-pyrazol-1-yl)piperidin-1-yl)prop-2-en-1-one] | 0.045 | 0.4 | 
